Experimental data reported in the kinase profiling compilation of Christmann-Franck et al. (2016).

What was measured:
CHEK2 (human) [1] = target: CHEK2 (human) (UniProt O96017); assay: SelectScreen, TR FRET
LRRK2 (human) = LRRK2 (human) (UniProt Q5S007); assay: SelectScreen, TR FRET
PLK1 (human) = PLK1 (human) (UniProt P53350); assay: SelectScreen, TR FRET
NUAK1 (human) [2] = target: NUAK1 (human) (UniProt O60285); assay: SelectScreen, TR FRET
MKNK2 (human) = MKNK2 (human) (UniProt Q9HBH9); assay: SelectScreen, TR FRET
AURKA (human) [3] = target: AURKA (human) (UniProt O14965); assay: SelectScreen, TR FRET
Chain of AURKA (human) (O14965 whole entry, looked up): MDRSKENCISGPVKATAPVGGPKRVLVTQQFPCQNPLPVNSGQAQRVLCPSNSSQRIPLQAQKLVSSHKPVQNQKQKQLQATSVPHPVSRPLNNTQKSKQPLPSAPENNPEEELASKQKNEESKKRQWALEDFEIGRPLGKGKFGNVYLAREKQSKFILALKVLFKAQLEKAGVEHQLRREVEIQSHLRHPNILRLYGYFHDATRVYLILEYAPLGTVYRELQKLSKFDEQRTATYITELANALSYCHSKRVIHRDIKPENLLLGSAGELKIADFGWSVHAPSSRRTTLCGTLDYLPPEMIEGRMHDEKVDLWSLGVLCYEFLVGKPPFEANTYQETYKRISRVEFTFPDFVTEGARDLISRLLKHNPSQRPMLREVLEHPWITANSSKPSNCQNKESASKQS

MYLK (human) = MYLK (human) (UniProt Q15746); assay: SelectScreen, TR FRET
AURKB (human) = AURKB (human) (UniProt Q96GD4); assay: SelectScreen, TR FRET
DCLK2 (human) = DCLK2 (human) (UniProt Q8N568); assay: SelectScreen, TR FRET
CHEK2 (human) [4] = target: CHEK2 (human) (UniProt O96017); assay: radiometric filter-binding kinase assay
MAPKAPK3 (human) = MAPKAPK3 (human) (UniProt Q16644); assay: radiometric filter-binding kinase assay
RIPK2 (human) = RIPK2 (human) (UniProt O43353); assay: radiometric filter-binding kinase assay
NUAK1 (human) [5] = target: NUAK1 (human) (UniProt O60285); assay: radiometric filter-binding kinase assay
MARK4 (human) = MARK4 (human) (UniProt Q96L34); assay: radiometric filter-binding kinase assay
RPS6KA3 KD1 KD2 (human) = RPS6KA3 KD1 KD2 (human) (UniProt P51812); assay: radiometric filter-binding kinase assay
MARK2 (human) = MARK2 (human) (UniProt Q7KZI7); assay: radiometric filter-binding kinase assay
PAK7 (human) = PAK7 (human) (UniProt Q9P286); assay: radiometric filter-binding kinase assay
PRKAA1 or PRKAA2 (rat) = assay: radiometric filter-binding kinase assay; details: accession and sequence are those of the human protein
EEF2K (human) = EEF2K (human) (UniProt O00418); assay: radiometric filter-binding kinase assay
MAP2K1 (human) = MAP2K1 (human) (UniProt Q02750); assay: radiometric filter-binding kinase assay
MAP3K9 (human) = MAP3K9 (human) (UniProt P80192); assay: radiometric filter-binding kinase assay
FLT1 (human) = FLT1 (human) (UniProt P17948); assay: radiometric filter-binding kinase assay
MARK3 (human) = MARK3 (human) (UniProt P27448); assay: radiometric filter-binding kinase assay
AURKA (human) [6] = target: AURKA (human) (UniProt O14965); assay: radiometric filter-binding kinase assay
PIM3 (human) = PIM3 (human) (UniProt Q86V86); assay: radiometric filter-binding kinase assay
FGFR1 (human) = FGFR1 (human) (UniProt P11362); assay: radiometric filter-binding kinase assay
PIM2 (human) = PIM2 (human) (UniProt Q9P1W9); assay: radiometric filter-binding kinase assay
Chain of PIM2 (human) (Q9P1W9 whole entry, looked up): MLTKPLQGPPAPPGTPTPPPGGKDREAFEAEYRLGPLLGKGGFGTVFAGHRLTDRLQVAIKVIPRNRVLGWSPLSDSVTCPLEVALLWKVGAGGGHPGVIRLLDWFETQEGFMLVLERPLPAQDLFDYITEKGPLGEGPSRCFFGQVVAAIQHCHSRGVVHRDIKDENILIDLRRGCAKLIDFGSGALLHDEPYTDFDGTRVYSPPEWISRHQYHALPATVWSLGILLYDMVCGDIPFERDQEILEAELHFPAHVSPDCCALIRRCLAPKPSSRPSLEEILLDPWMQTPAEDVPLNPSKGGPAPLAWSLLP

DYRK1A (human) = DYRK1A (human) (UniProt Q13627); assay: radiometric filter-binding kinase assay
INSR (human) = INSR (human) (UniProt P06213); assay: radiometric filter-binding kinase assay
Chain of INSR (human) (P06213 whole entry, looked up): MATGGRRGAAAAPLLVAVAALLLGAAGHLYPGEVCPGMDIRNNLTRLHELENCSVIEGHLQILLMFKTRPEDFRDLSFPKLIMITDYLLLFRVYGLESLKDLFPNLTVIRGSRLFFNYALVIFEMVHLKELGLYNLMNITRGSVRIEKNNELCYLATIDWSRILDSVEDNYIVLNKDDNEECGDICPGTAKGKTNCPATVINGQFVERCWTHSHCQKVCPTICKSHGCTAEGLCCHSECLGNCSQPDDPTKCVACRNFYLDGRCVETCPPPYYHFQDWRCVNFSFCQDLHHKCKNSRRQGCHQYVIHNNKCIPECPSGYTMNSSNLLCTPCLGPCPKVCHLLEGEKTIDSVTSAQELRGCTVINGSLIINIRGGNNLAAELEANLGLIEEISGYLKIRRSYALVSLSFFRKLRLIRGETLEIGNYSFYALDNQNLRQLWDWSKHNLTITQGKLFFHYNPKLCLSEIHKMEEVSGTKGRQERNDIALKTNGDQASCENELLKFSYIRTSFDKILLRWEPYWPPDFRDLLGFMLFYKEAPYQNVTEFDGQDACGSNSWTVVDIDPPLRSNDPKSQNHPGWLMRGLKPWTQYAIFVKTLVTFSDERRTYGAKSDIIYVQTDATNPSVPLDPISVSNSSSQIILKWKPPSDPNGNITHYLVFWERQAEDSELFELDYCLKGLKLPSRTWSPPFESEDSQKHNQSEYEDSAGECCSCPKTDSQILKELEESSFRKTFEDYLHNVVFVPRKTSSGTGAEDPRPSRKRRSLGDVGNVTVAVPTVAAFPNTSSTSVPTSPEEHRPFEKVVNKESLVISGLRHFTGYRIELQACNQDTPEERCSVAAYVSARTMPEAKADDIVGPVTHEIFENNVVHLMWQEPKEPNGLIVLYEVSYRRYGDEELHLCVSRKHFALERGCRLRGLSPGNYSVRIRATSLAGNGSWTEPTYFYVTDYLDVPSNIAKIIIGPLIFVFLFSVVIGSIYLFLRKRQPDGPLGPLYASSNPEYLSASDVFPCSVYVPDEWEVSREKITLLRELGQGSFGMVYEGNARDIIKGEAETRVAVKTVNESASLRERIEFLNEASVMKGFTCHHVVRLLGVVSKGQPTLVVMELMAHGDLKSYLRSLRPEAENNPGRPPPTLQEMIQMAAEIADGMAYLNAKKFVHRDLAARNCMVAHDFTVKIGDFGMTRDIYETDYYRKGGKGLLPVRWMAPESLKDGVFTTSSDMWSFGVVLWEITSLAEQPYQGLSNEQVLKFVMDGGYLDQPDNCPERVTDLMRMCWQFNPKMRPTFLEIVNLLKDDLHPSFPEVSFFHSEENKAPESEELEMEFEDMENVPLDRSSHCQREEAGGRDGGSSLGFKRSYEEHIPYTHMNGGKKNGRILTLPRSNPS

MAPK9 (human) = MAPK9 (human) (UniProt P45984); assay: radiometric filter-binding kinase assay
BTK (human) = BTK (human) (UniProt Q06187); assay: radiometric filter-binding kinase assay
Chain of BTK (human) (Q06187 whole entry, looked up): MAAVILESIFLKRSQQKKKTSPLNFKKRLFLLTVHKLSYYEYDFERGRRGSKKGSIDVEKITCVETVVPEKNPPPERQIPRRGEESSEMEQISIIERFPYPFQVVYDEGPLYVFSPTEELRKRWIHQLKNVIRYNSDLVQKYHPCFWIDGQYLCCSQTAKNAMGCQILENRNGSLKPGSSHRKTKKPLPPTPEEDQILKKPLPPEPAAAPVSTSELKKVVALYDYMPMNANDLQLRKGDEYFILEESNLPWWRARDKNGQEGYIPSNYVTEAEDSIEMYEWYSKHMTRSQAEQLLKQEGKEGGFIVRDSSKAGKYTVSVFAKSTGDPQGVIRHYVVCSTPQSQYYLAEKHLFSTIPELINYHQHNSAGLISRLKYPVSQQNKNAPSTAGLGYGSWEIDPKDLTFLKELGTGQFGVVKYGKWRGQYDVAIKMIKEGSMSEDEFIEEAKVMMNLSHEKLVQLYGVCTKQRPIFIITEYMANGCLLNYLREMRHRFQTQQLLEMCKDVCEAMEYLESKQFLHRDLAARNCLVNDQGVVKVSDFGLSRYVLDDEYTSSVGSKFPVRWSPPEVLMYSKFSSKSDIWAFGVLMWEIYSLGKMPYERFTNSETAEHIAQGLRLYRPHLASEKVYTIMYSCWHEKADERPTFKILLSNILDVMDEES

[7] = tested on: SGK1 (human), O00141 [S422D]; assay: radiometric filter-binding kinase assay
Chain of SGK1 (human), O00141 [S422D] (O00141 whole entry S422D, looked up): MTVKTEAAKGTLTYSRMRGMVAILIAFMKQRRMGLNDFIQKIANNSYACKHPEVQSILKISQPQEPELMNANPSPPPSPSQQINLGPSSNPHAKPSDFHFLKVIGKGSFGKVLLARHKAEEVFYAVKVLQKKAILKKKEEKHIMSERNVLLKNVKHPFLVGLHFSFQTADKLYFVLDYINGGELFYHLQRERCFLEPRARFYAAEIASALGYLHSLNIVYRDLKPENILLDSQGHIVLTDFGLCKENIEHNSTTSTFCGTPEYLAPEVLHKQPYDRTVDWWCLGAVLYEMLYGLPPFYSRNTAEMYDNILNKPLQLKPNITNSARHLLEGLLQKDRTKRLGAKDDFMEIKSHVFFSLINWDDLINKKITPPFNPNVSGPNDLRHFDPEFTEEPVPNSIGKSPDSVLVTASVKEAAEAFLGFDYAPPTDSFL

PAK4 (human) = PAK4 (human) (UniProt O96013); assay: radiometric filter-binding kinase assay
Chain of PAK4 (human) (O96013 whole entry, looked up): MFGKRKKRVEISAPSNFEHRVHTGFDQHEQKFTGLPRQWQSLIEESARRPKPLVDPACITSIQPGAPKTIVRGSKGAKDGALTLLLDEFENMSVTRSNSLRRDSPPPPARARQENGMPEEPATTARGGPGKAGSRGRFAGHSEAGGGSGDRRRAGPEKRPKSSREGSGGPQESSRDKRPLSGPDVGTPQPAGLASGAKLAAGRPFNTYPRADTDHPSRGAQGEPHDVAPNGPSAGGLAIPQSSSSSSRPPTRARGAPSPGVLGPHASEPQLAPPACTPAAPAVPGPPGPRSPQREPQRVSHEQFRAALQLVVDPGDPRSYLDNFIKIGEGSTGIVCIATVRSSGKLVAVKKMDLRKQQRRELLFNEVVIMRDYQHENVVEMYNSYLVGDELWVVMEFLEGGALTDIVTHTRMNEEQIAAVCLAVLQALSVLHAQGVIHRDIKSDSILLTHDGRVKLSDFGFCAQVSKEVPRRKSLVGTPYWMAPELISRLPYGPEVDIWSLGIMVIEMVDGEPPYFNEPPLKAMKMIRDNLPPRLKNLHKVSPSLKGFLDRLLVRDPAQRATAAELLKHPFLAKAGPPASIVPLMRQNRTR

PIM1 (human) = PIM1 (human) (UniProt P11309); assay: radiometric filter-binding kinase assay
[8] = tested on: AKT1 (human), P31749 [S473D]; assay: radiometric filter-binding kinase assay

Chain of CHEK2 (human) (O96017 whole entry, looked up): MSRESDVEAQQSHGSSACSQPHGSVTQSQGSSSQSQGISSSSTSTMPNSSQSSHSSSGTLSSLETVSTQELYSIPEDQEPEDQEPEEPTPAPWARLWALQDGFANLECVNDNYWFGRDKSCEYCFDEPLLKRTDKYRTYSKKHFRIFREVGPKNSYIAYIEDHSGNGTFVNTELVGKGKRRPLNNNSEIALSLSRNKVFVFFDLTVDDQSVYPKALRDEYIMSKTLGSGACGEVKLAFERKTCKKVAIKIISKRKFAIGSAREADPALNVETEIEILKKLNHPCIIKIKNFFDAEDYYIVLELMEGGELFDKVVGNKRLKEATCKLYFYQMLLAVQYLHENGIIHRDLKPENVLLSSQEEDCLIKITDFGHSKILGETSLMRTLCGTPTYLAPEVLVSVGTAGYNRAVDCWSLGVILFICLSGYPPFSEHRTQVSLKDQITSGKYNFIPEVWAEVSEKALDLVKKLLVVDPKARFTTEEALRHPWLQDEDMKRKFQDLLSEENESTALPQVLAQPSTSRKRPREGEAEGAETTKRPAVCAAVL
Chain of NUAK1 (human) (O60285 whole entry, looked up): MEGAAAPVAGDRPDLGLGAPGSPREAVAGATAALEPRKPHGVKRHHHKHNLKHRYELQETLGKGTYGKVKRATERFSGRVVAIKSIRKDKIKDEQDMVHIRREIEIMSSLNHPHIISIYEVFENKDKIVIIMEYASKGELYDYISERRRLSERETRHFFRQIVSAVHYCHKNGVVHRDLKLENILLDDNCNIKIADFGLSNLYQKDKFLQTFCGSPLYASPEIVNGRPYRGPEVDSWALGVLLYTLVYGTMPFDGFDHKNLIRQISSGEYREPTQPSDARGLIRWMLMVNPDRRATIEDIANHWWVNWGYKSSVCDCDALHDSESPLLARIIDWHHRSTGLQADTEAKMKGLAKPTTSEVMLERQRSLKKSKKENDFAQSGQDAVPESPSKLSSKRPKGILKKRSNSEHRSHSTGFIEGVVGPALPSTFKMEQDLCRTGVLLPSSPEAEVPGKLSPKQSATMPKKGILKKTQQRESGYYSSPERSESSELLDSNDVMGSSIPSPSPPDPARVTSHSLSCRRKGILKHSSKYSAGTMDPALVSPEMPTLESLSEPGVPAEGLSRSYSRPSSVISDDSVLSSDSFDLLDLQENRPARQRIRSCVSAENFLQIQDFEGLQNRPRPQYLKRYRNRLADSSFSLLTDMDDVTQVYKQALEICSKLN

Compound `COc1cc(C(=O)N2CCC(N3CCN(C)CC3)CC2)ccc1Nc1ncc2c(n1)N(C)c1ccccc1C(=O)N2C` has an IC50 (CHEK2 (human) [1]) of 6.51 µM, an IC50 (LRRK2 (human)) of 3 nM and an IC50 (PLK1 (human)) of 983 µM. For the same compound, the IC50 (NUAK1 (human) [2]) was 3.67 µM, the IC50 (MKNK2 (human)) was 4.47 µM and the IC50 (AURKA (human) [3]) was 870 nM. For the same compound, the IC50 (MYLK (human)) was 8.21 µM, the IC50 (AURKB (human)) was 5.92 µM and the IC50 (DCLK2 (human)) was 45 µM. It also gave an IC50 (CHEK2 (human) [4]) of 2000 nM, a residual activity (CHEK2 (human) [4]; compound 1.0 µM) of 38% and a residual activity (CHEK2 (human) [4]; compound 10.0 µM) of 13%. It also gave a residual activity (MAPKAPK3 (human); compound 1.0 µM) of 85%, a residual activity (MAPKAPK3 (human); compound 10.0 µM) of 89% and a residual activity (RIPK2 (human); compound 1.0 µM) of 103%. The residual activity (RIPK2 (human); compound 10.0 µM) was 101%, the IC50 (NUAK1 (human) [5]) was 5 µM and the residual activity (NUAK1 (human) [5]; compound 1.0 µM) was 50%. For the same compound, the residual activity (NUAK1 (human) [5]; compound 10.0 µM) was 19%, the residual activity (MARK4 (human); compound 1.0 µM) was 94% and the residual activity (MARK4 (human); compound 10.0 µM) was 87%. It also gave a residual activity (RPS6KA3 KD1 KD2 (human); compound 1.0 µM) of 84%, a residual activity (RPS6KA3 KD1 KD2 (human); compound 10.0 µM) of 59% and a residual activity (MARK2 (human); compound 1.0 µM) of 62%. The residual activity (MARK2 (human); compound 10.0 µM) was 72%, the residual activity (PAK7 (human); compound 1.0 µM) was 84% and the residual activity (PAK7 (human); compound 10.0 µM) was 89%. For the same compound, the residual activity (PRKAA1 or PRKAA2 (rat); compound 1.0 µM) was 70%, the residual activity (PRKAA1 or PRKAA2 (rat); compound 10.0 µM) was 46% and the residual activity (EEF2K (human); compound 1.0 µM) was 75%. For the same compound, the residual activity (EEF2K (human); compound 10.0 µM) was 82%, the residual activity (MAP2K1 (human); compound 1.0 µM) was 94% and the residual activity (MAP2K1 (human); compound 10.0 µM) was 86%. The residual activity (MAP3K9 (human); compound 1.0 µM) was 87%, the residual activity (MAP3K9 (human); compound 10.0 µM) was 96% and the residual activity (FLT1 (human); compound 1.0 µM) was 64%. The residual activity (FLT1 (human); compound 10.0 µM) was 61%, the residual activity (MARK3 (human); compound 1.0 µM) was 100% and the residual activity (MARK3 (human); compound 10.0 µM) was 105%. The IC50 (AURKA (human) [6]) was 1200 nM, the residual activity (AURKA (human) [6]; compound 1.0 µM) was 33% and the residual activity (AURKA (human) [6]; compound 10.0 µM) was 5%. The residual activity (PIM3 (human); compound 1.0 µM) was 97%, the residual activity (PIM3 (human); compound 10.0 µM) was 76% and the residual activity (FGFR1 (human); compound 1.0 µM) was 83%. It also gave a residual activity (FGFR1 (human); compound 10.0 µM) of 60%, a residual activity (PIM2 (human); compound 1.0 µM) of 87% and a residual activity (PIM2 (human); compound 10.0 µM) of 97%. The residual activity (DYRK1A (human); compound 1.0 µM) was 87%, the residual activity (DYRK1A (human); compound 10.0 µM) was 95% and the residual activity (INSR (human); compound 1.0 µM) was 104%. The residual activity (INSR (human); compound 10.0 µM) was 103%, the residual activity (MAPK9 (human); compound 1.0 µM) was 79% and the residual activity (MAPK9 (human); compound 10.0 µM) was 98%. The residual activity (BTK (human); compound 1.0 µM) was 95%, the residual activity (BTK (human); compound 10.0 µM) was 75% and the residual activity ([7]; compound 1.0 µM) was 75%. It also gave a residual activity ([7]; compound 10.0 µM) of 89%, a residual activity (PAK4 (human); compound 1.0 µM) of 94% and a residual activity (PAK4 (human); compound 10.0 µM) of 108%. For the same compound, the residual activity (PIM1 (human); compound 1.0 µM) was 94%, the residual activity (PIM1 (human); compound 10.0 µM) was 87% and the residual activity ([8]; compound 1.0 µM) was 71%. For the same compound, the residual activity ([8]; compound 10.0 µM) was 81%.
